For five molecules, IC50 results are on record in BindingDB's records for patent US11878965 (Gilead Sciences, 2024).

Chain of Protein-arginine deiminase type-4 (Q9UM07 whole entry): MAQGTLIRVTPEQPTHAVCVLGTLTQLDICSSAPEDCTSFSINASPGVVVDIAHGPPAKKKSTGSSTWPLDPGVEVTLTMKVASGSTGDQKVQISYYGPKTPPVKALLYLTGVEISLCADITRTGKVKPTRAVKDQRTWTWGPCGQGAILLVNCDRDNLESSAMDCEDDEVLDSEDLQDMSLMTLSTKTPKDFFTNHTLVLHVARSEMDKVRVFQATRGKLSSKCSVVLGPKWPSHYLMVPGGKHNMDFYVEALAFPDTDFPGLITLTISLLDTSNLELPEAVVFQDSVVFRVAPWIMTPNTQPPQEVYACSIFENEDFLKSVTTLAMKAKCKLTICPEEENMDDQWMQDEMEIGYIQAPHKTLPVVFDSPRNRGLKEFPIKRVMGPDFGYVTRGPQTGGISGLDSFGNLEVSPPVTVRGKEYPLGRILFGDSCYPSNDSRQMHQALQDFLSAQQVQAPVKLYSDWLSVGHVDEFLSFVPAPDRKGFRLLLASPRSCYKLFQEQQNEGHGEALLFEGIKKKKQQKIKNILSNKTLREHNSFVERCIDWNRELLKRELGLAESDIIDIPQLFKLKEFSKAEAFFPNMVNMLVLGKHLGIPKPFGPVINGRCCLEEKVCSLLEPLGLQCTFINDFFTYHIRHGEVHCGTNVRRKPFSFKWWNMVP

The target in the assay is Protein-arginine deiminase type-4 (Homo sapiens, UniProt Q9UM07). As to the kind of experiment: In Vitro PAD4 BAEE Biochemical Assay. As for the experimental part:
One hundred nanoliters of test compounds dissolved in DMSO at various concentrations were dispensed into a 384-well black OptiPlate using a Labcyte Echo instrument. Ten microliters of a solution of recombinant PAD4 and calcium chloride diluted in PAD4 assay buffer (50 mM MOPS [3-(N-morpholino) propanesulfonic acid], pH 7.6; 50 mM sodium chloride; 0.05% Tween-20; 2 mM dithiothreitol) was added to the compound-containing plate and was incubated for 30 minutes at 25° C. Ten microliters of a solution of BAEE (Sigma-Aldrich #B4500) diluted in PAD4 assay buffer was then added to start the reaction. Final concentrations were 5 nM PAD4, 2 mM calcium chloride, and 3 mM BAEE. The reaction mixture was incubated at 25° C. for 2 hours and was stopped with the addition of 10 microliters of a solution of 75 mM EDTA (Ethylenediaminetetraacetic acid) in PAD4 assay buffer. Thirty microliters of detection solution (5 mM o-phthalaldehyde, 50 mM MOPS [3-(N-morpholino) propanesulfonic acid], pH 7.6; 50 mM sodium chloride; 0.05% Tween-20; 5 mM dithiothreitol) was then added and the reaction was incubated for 1 hour at 25° C.
Consider `COc1cc(C(=O)N2[C@H]3CC[C@@H]2[C@H](N)C3)cc2nc(-c3cc4ccc([C@@H](C)NC(=O)C56CC(F)(C5)C6)c(F)c4n3CC3CC3)n(C)c12` [US11878965, Example 144], for which the IC50 (as a rule, the concentration that inhibits the measured activity by half) is 229 nM.

In turn, `COc1cc(C(=O)N2[C@H]3CC[C@@H]2[C@H](N)C3)cc2nc(-c3cc4ccc([C@@H](C)NC(=O)N5CC(F)(F)C5)nc4n3CC3CC3)n(C)c12` [US11878965, Example 238] registered a concentration for half-maximal inhibition (IC50) of 28.7 nM. As to `COc1cc(C(=O)N2C[C@H](N)CC[C@@H]2C)cc2nc(-c3cc4ccc(N5C(=O)CC[C@H]5C)nc4n3CC3CC3)n(C)c12` [US11878965, Example 284], it took 1240 nM to reach half-maximal inhibition (IC50). In turn, `COc1cc(C(=O)N2C[C@H](N)[C@@H]3CC[C@H]2C3)cc2nc(-c3cc4ccc([C@@H](C)NC(=O)c5cccnc5Cl)nc4n3CC3CC3)n(C)c12` [US11878965, Example 302] came in with an IC50 of 68.4 nM. With `COc1cc(C(=O)N2C[C@H](N)CC[C@@H]2C)cc2nc(-c3cc4ccc(-c5cccnc5-c5cccnc5Cl)nc4n3CC3CC3)n(C)c12` [US11878965, Example 258], half-maximal inhibition (IC50) was put at 245 nM.
